Structures are written as SMILES. Values after ≈ are worked out from the molar mass of the structure shown.

For this data set the following is noted: buffer; pH 7.4; 200.0 µM.
With `Nc1ccc2nc(SCC(=O)N3CCOCC3)sc2c1`, the kinetic solubility (as a rule, solubility judged after dilution from a stock solution rather than from solid) was > 46.4 µg/mL.

`CSCC[C@H](NC(=O)Nc1ccccc1C)C(=O)O`: the solubility (kinetic) was > 42.4 µg/mL.

On to `COc1ccc(C(CC(=O)Nc2nccs2)C(C)C)cc1` (stereo not drawn), for which the kinetic solubility turned out to be 33.7 µg/mL (≈ 111 µM).

With `COP(=O)(OC)C(NC(C)=O)C(Cl)(Cl)Cl` (stereo not drawn), the kinetic solubility is > 44.8 µg/mL.

On to `COc1ccc(OC)c(/C=C/C(=O)OCC(=O)N2C(C)CCCC2C)c1` (stereo not drawn), for which the kinetic solubility came out at 44.1 µg/mL (≈ 122 µM).

Regarding `O=C(Cc1cccs1)NCc1cccc(Br)c1`, the kinetic solubility is > 46.5 µg/mL.

For `CSc1cccc(NC(=S)NC(=O)c2cccnc2)c1`, the solubility (kinetic) was 5.1 µg/mL (≈ 16.8 µM).

In turn, `COc1ccccc1C(=O)N1CCN(C(=O)Cc2ccccc2)CC1` registered a kinetic solubility of 43.2 µg/mL (≈ 128 µM).

As to `O=c1c2ccccc2ncn1CCOCCOc1ccc([N+](=O)[O-])cc1`, the solubility (kinetic) stood at 17.1 µg/mL (≈ 48.1 µM).

Consider `CS(=O)(=O)Nc1ccc(C(=O)Nc2ccc3c(c2)OCO3)cc1`, for which the kinetic solubility turned out to be 6.2 µg/mL (≈ 18.5 µM).

`COc1ccc(NC(=O)C(CC(=O)O)Cc2ccc(Cl)cc2)cc1` (stereo not drawn): the solubility (kinetic) was > 52.2 µg/mL.

Molecule `Nc1nc(-c2cccs2)c(-c2cccs2)s1` showed a kinetic solubility of 5.8 µg/mL (≈ 21.9 µM).

Molecule `CCS(=O)(=O)N1CCC(C(=O)Oc2ccccc2)CC1` had a kinetic solubility of 39.1 µg/mL (≈ 131 µM).

With `CC(=O)Nc1nccc(-c2cc(-c3ccccc3)no2)n1`, the solubility (kinetic) amounted to 2.1 µg/mL (≈ 7.49 µM).

For `Cn1nc(C(F)(F)F)c2cc(C(=O)N3CCOCC3)sc21`, the kinetic solubility is > 47.9 µg/mL.

As for `Cc1cc(C)c2c(=O)c(C#N)coc2c1`, the kinetic solubility worked out at 26.4 µg/mL (≈ 133 µM).

`COc1ccc(C(=O)N2CC3(C)C4CCC3(C)C2(C#N)C4)cc1OC` (stereo not drawn): the kinetic solubility came to 45 µg/mL (≈ 132 µM).

On to `CCCCN(Cc1cc2cccc(C)c2[nH]c1=O)S(C)(=O)=O`, for which the kinetic solubility was found to be 41 µg/mL (≈ 127 µM).

For `N#Cc1c(-c2ccccc2)cc(-c2ccc(O)cc2)nc1N`, the kinetic solubility was < 0.2 µg/mL.

`CCCC(=O)OCC(=O)NCc1ccc(Cl)cc1` registered a kinetic solubility of 35.8 µg/mL (≈ 133 µM).

In turn, `CC1CCCCC1NC(=O)COC(=O)COc1ccccc1Cl` (stereo not drawn) came in with a solubility (kinetic) of 17.8 µg/mL (≈ 52.4 µM).

As to `O=C(NC1CCCC1)C1CCN(S(=O)(=O)c2ccccc2)CC1`, the solubility (kinetic) was determined as 44.2 µg/mL (≈ 131 µM).

Turning to `CCOc1cnc(C(=O)NNC(=O)c2ccccc2Br)o1`, the solubility (kinetic) was > 53.1 µg/mL.

On to `CCCCOc1ccc(OCCNC(=O)c2ccco2)cc1`, for which the kinetic solubility was determined as 22.5 µg/mL (≈ 74.2 µM).

In turn, `O=C(NC1CCCC1)c1ccc(Cl)s1` showed a solubility (kinetic) of 30.7 µg/mL (≈ 134 µM).

Regarding `NC(CSCc1ccccc1Cl)C(=O)O` (stereo not drawn), the kinetic solubility was > 36.9 µg/mL.

With `Cl.O=C(OCCN1CCOCC1)c1ccccc1Cl`, the solubility (kinetic) is > 45.9 µg/mL.

`O=C(Nc1ccc2nc(N3CCOCC3)sc2c1)c1ccccc1` had a solubility (kinetic) of 7.2 µg/mL (≈ 21.2 µM).

`CCc1nc2ccccc2c(C(=O)OCc2nc3ccccc3c(=O)[nH]2)c1C` showed a solubility (kinetic) of 14.5 µg/mL (≈ 38.8 µM).

On to `CCc1ccc(OC(=O)c2cccnc2)cc1`, for which the kinetic solubility amounted to 26.8 µg/mL (≈ 118 µM).

As to `O=C(CN1C(=O)COc2ccc(Cl)cc21)Nc1ccccn1`, the kinetic solubility amounted to 17 µg/mL (≈ 53.5 µM).

For the molecule `CCOc1ccccc1NC(=O)c1nc(-c2ccccc2)oc1C`, the kinetic solubility worked out at 0.9 µg/mL (≈ 2.79 µM).

Consider `O=C(CN1C(=O)NC2(CCCCC2)C1=O)NCCc1ccccc1`, for which the solubility (kinetic) was > 49.4 µg/mL.

`CC(NC(=O)c1ccncc1)c1ccc(Cl)cc1Cl` (stereo not drawn): the solubility (kinetic) was > 44.3 µg/mL.

As for `CCOC(=O)NC(=O)c1cn(CCNCCO)c(=O)[nH]c1=O`, the solubility (kinetic) is > 47.1 µg/mL.

Take `O=C(COC(=O)c1cccnc1Cl)Nc1cccc(S(=O)(=O)N2CCOCC2)c1`: the solubility (kinetic) is > 66 µg/mL.

Take `CCCC(=O)Nc1ccc(S(=O)(=O)Nc2cc(OC)ncn2)cc1`: the solubility (kinetic) was > 52.6 µg/mL.

For the molecule `N#Cc1ccccc1OCC(=O)OCC(=O)NC1CCCCCC1`, the kinetic solubility was > 49.6 µg/mL.

For `CN=c1scc(-c2ccccc2F)n1/N=C/c1ccc(O)c(O)c1O`, the solubility (kinetic) was > 53.9 µg/mL.

Turning to `Cn1c(SCC(=O)NC2CC2)nnc1-c1cccs1`, the solubility (kinetic) is > 44.2 µg/mL.

Molecule `O=C1C(Nc2ccccc2)=C2CCCC=C2N1c1ccccc1` came in with a kinetic solubility of 1.8 µg/mL (≈ 5.95 µM).

In turn, `CC(C)(C)c1ccc(S(=O)(=O)NCC2CCCO2)cc1` (stereo not drawn) yielded a solubility (kinetic) of 34.9 µg/mL (≈ 117 µM).

The molecule `CC(OC(=O)c1ccc(Cl)cc1)C(=O)NCC1CCCCC1` (stereo not drawn) displayed a kinetic solubility of 13.8 µg/mL (≈ 42.6 µM).

Regarding `CN1C(=O)NC(=O)/C(=C/c2ccc(C(=O)O)cc2)C1=O`, the kinetic solubility was > 41.1 µg/mL.

Take `C/C(N)=C(/C#N)C(=O)COC(=O)C1=NN(c2ccccc2)C(=O)CC1`: the kinetic solubility was > 51.1 µg/mL.

Turning to `Cc1ccsc1C(=O)N1CCN(C(=O)c2ccco2)CC1`, the kinetic solubility is > 45.7 µg/mL.

With `Cc1ccc([N+](=O)[O-])cc1NC(=O)c1cccnc1`, the kinetic solubility was > 38.6 µg/mL.

On to `Cc1ccc2oc(=O)n(CC(=O)N3CCOCC3)c2c1`, for which the solubility (kinetic) was > 41.4 µg/mL.

`Cc1ccc(Cc2c(C)[nH]c(=S)[nH]c2=O)cc1` showed a kinetic solubility of 7.4 µg/mL (≈ 30 µM).

As to `O=C(Nc1ccncc1)Nc1ccc(Cl)cc1`, the kinetic solubility is 9.8 µg/mL (≈ 39.6 µM).

In turn, `COC(=O)C(C)Oc1ccc(-c2nccc(-c3ccc(F)cc3)n2)cc1` (stereo not drawn) had a kinetic solubility of 2.6 µg/mL (≈ 7.38 µM).

For the molecule `CCN(CC)S(=O)(=O)c1ccc(OC)c(NC(=O)CSCc2c(C)noc2C)c1`, the kinetic solubility is > 66.2 µg/mL.

The molecule `Cc1c(C(=O)N2CCN(S(=O)(=O)c3ccccc3)CC2)oc2ccc(Br)cc12` came in with a kinetic solubility of 6.8 µg/mL (≈ 14.7 µM).

These data come from PubChem BioAssay AID1996.
